Test results published in patent US20130281399A1, “TREATMENT OF DISEASES BY EPIGENETIC REGULATION” (RVX Therapeutics Inc., priority 2012, published 2013).

Key:
[1] = biological target: T1, Brd4 bromodomain 1 (Homo sapiens, UniProt O60885); assay: Inhibition of binding of tetra-acetylated histone H4 to Brd4 bromodomain 1 (TR-FRET); details: His-tagged Brd4 bromodomain 1 200 nM, tetra-acetylated histone H4 peptide 25-50 nM, 2 hours room temperature
T1 construct: made in house; host or cells: E. coli BL21(DE3)
Procedure: Proteins were cloned and overexpressed with a N-terminal 6×His tag, then purified by nickel affinity followed by size exclusion chromatography. Briefly, E. coli BL21(DE3) cells were transformed with a recombinant expression vector encoding N-terminally Nickel affinity tagged bromodomains from Brd2, Brd3, Brd4. Cell cultures were incubated at 37° C. with shaking to the appropriate density and induced overnight with IPTG. The supernatant of lysed cells was loaded onto Ni-IDA column for purification. Eluted protein was pooled, concentrated and further purified by size exclusion chromatography. Fractions representing monomeric protein were pooled, concentrated, aliquoted, and frozen at −80° C. for use in subsequent experiments.
For inhibition assays, serially diluted test compound was added to these reactions in a 0.2% final concentration of DMSO. Final buffer concentrations were 30 mM HEPES pH 7.4, 30 mM NaCl, 0.3 mM CHAPS, 20 mM phosphate pH 7.0, 320 mM KF, 0.08% BSA). […] The binding inhibitory activity was shown by a decrease in 665 nm fluorescence relative to 620 nm. IC50 values were determined from a dose response curve.

Structure (SMILES) | FRET activity (<50 uM) [1] | melting point [°C]
COc1cc(OC)c2c(=O)[nH]c(-c3cc(C)c(OCCN4C(=O)NC(c5ccccc5)C4=O)c(C)c3)nc2c1 (centres unmarked) [Example 79, 3-(2-(4-(5,7-Dimethoxy-4-oxo-3,4-dihydroquinazolin-2-yl)-2,6-dimethylphenoxy)ethyl)-5-phenylimidazolidine-2,4-dione] | Active | 219.6 to 221.4
COc1cccc2nc(-c3cc(C)c(OCCN4CCCC4)c(C)c3)[nH]c(=O)c12 [Example 66, 2-(3,5-Dimethyl-4-(2-(pyrrolidin-1-yl)ethoxy)phenyl)-5-methoxyquinazolin-4(3H)-one] | Active | 157 to 158
Cc1cc(-c2nc3cc(Cl)cc(Cl)c3c(=O)[nH]2)cc(C)c1OCCN1CCCC1 [Example 67, 5,7-Dichloro-2-(3,5-dimethyl-4-(2-(pyrrolidin-1-yl)ethoxy)phenyl)quinazolin-4(3H)-one] | Inactive | 209 to 210
COc1cc(OC)c2c(=O)[nH]c(-c3ccc(N4CCC(O)CC4)cc3)nc2n1 [Example 8, 2-(4-(4-Hydroxypiperidin-1-yl)phenyl)-5,7-dimethoxypyrido[2,3-d]pyrimidin-4(3H)-one] | Active | 284 to 286
COc1ccc2c(=O)[nH]c(-c3cc(C)c(OCCN4CCCC4)c(C)c3)nc2c1 [Example 70, 2-(3,5-Dimethyl-4-(2-(pyrrolidin-1-yl)ethoxy)phenyl)-7-methoxyquinazolin-4(3H)-one] | Inactive | 218 to 220
Cc1cc(-c2nc3cccc(Cl)c3c(=O)[nH]2)cc(C)c1OCCN1CCCC1 [Example 83, 5-Chloro-2-(3,5-dimethyl-4-(2-(pyrrolidin-1-yl)ethoxy)phenyl)quinazolin-4(3H)-one] | Inactive | 179 to 180
Cc1cc(C)c2c(=O)[nH]c(-c3cc(C)c(OCCN4CCCC4)c(C)c3)nc2c1 [Example 89, 2-(3,5-Dimethyl-4-(2-(pyrrolidin-1-yl)ethoxy)phenyl)-5,7-dimethylquinazolin-4(3H)-one] | Active | 181 to 182
COc1cc(OC)c2c(=O)[nH]c(-c3cc(C)c(OCCN4CCCC4)c(C)c3)nc2n1 |  | 228 to 230
COc1cc(OC)c2c(=O)[nH]c(-c3ccc(N4CCN(Cc5ccccc5)CC4)cc3)nc2c1 [Example 30, 2-(4-(4-Benzylpiperazin-1-yl)phenyl)-5,7-dimethoxyquinazolin-4(3H)-one] | Inactive | 
COc1cc(OC)c2c(=O)[nH]c(-c3ccc(Nc4cccnc4)cc3)nc2c1 [Example 62, 5,7-Dimethoxy-2-(4-(pyridin-3-ylamino)phenyl)quinazolin-4(3H)-one] | Active | 
Cc1cc(-c2nc3cc(F)cc(F)c3c(=O)[nH]2)cc(C)c1OCCN1CCCC1 [Example 85, 2-(3,5-Dimethyl-4-(2-(pyrrolidin-1-yl)ethoxy)phenyl)-5,7-difluoroquinazolin-4(3H)-one] | Inactive | 

Next, values leading:

FRET activity (<50 uM) [1] | melting point [°C] | Structure (SMILES)
Active | 106.9 to 109.1 | COc1cc(OC)c2c(=O)[nH]c(-c3cc(C)cc(OCCO)c3)nc2c1 [Example 113, 2-(3-(2-Hydroxyethoxy)-5-methylphenyl)-5,7-dimethoxyquinazolin-4(3H)-one]
Active | 223 to 224 | COc1cc(OCCOc2ccccc2)cc2nc(-c3cc(C)nc(C)c3)[nH]c(=O)c12 [Example 103, 2-(2,6-Dimethylpyridin-4-yl)-5-methoxy-7-(2-phenoxyethoxy)quinazolin-4(3H)-one]
Active | 295 to 296 | COc1cc(OC)c2c(=O)[nH]c(-c3ccc(Cc4nnn[nH]4)cc3)nc2c1 [Example 96, 2-(4-((1H-Tetrazol-5-yl)methyl)phenyl)-5,7-dimethoxyquinazolin-4(3H)-one]
Active | 178 to 180 | COc1cc(OCCOCc2ccccc2)cc2nc(-c3cc(C)nc(C)c3)[nH]c(=O)c12 [Example 109, 7-(2-(Benzyloxy)ethoxy)-2-(2,6-dimethylpyridin-4-yl)-5-methoxyquinazolin-4(3H)-one]
Inactive | 228.2 to 229.9 | COc1cc(OCCOCc2ccccc2)cc2nc(-c3ccncc3)[nH]c(=O)c12 [Example 98, 7-(2-(Benzyloxy)ethoxy)-5-methoxy-2-(pyridin-4-yl)quinazolin-4(3H)-one]
 | 188 to 189 | COc1cc(OCCOC(C)C)cc2nc(-c3cc(C)nc(C)c3)[nH]c(=O)c12 [Example 107, 2-(2,6-Dimethylpyridin-4-yl)-7-(2-isopropoxyethoxy)-5-methoxyquinazolin-4(3H)-one]
Active | 213 to 214 | COc1cc(OC)c2c(=O)[nH]c(-c3cc(C)c(OCCN4CCN(C(C)=O)CC4)c(C)c3)nc2c1 [Example 68, 2-(4-(2-(4-Acetylpiperazin-1-yl)ethoxy)-3,5-dimethylphenyl)-5,7-dimethoxyquinazolin-4(3H)-one]
Active | 244.8 to 246 | COc1cc(OC)c2c(=O)[nH]c(-c3cccc(OCCO)c3)nc2c1 [Example 112, 2-(3-(2-Hydroxyethoxy)phenyl)-5,7-dimethoxyquinazolin-4(3H)-one]
Active | 204 to 205 | COc1cc(OC)c2c(=O)[nH]c(-c3cc(C)c(OCCN4CCC4)c(C)c3)nc2c1 [Example 86, 2-(4-(2-(Azetidin-1-yl)ethoxy)-3,5-dimethylphenyl)-5,7-dimethoxyquinazolin-4(3H)-one]
Active | 180 to 182 | COc1cc(OC)c2c(=O)[nH]c(-c3cc(C)c(OCCN4CCN(C)CC4)c(C)c3)nc2c1 [Example 71, 2-(3,5-Dimethyl-4-(2-(4-methylpiperazin-1-yl)ethoxy)phenyl)-5,7-dimethoxyquinazolin-4(3H)-one]
Active | 218 to 219 | COc1cc(OC)c2c(=O)[nH]c(-c3cc(C)c(OCCn4ccnc4)c(C)c3)nc2c1 [Example 69, 2-(4-(2-(1H-Imidazol-1-yl)ethoxy)-3,5-dimethylphenyl)-5,7-dimethoxyquinazolin-4(3H)-one]
Active | 149.8 to 151.4 | COCCOc1cc(OCCOC)c2c(=O)[nH]c(-c3cc(C)nc(C)c3)nc2c1 [Example 101, 2-(2,6-Dimethylpyridin-4-yl)-5,7-bis(2-methoxyethoxy)quinazolin-4(3H)-one]
Active | 260 to 262 | COCCOc1cc(OC)c2c(=O)[nH]c(-c3ccnc(C)c3)nc2c1 [Example 110, 5-methoxy-7-(2-methoxyethoxy)-2-(2-methylpyridin-4-yl)quinazolin-4(3H)-one]
Active |  | COc1cc(OCCOC(C)C)c2c(=O)[nH]c(-c3cc(C)nc(C)c3)nc2c1 [Example 6, 2-(2,6-dimethylpyridin-4-yl)-5-(2-isopropoxyethoxy)-7-methoxyquinazolin-4(3H)-one]
